Assay results as given in patent publication US11999702B1, “4,5-bis(4-chlorophenyl)-1-hexyl-2-(3,4-dimethoxyphenyl)-1H-imidazole as an antimicrobial compound” (KING FAISAL UNIVERSITY, priority 2023, dated 2024).

Assays:
Format in all cases: cell-based
Settings in all cases: after 10, 20, 40 and 60 minutes at all dilutions 1:100, 1:200, 1:400, 1:800
Staphylococcus aureus = assay: Antimicrobial testing by agar dilution, Staphylococcus aureus
Protocol: (§1) The antimicrobial properties of the 4,5-bis(4-chlorophenyl)-1-hexyl-2-(3,4-dimethoxyphenyl)-1H-imidazole (5) were studied by the method of agar dilution. Test solutions of each compound were prepared in concentration of 1% using dimethylformamide as a solvent then they are diluted in physiological solution to obtain the final experimental dilutions 1:100, 1:200, 1:400, 1:800. The effect of these substances were compared with furacillin in a controllable study. The testing microbes used were gram positive bacteria Staphylococcus aureus, gram negative bacteria Escherichia coli, Pseudomonas aeruginosa and Candida albicans fungi were taken. The experiments used for this survey were meat-pentonlu agar (EPA) for cultivation of bacteria and Saburo environment for fungi. Each experiment used 1 ml of test solution on each plate 500 min. Add 2 drops of emulsified with microbes feel. All experimental samples were taken from the agar after 10, 20, 40, 60 minutes in the environment on the basis of Patrk planted. Bacteria were cultivated at a temperature of 37° C. for 1 day and the mushroom was kept in a thermostat for […] at a temperature of 28° C. in the. Then results were checked.

Escherichia coli = assay: Antimicrobial testing by agar dilution, Escherichia coli
Protocol: as §1

Pseudomonas aeruginosa = assay: Antimicrobial testing by agar dilution, Pseudomonas aeruginosa
Protocol: as §1

Candida albicans = assay: Antimicrobial testing by agar dilution, Candida albicans
Protocol: as §1

Measured: inhibition activity

CCCCCCn1c(-c2ccc(OC)c(OC)c2)nc(-c2ccc(Cl)cc2)c1-c1ccc(Cl)cc1 [4,5-bis(4-chlorophenyl)-1-hexyl-2-(3,4-dimethoxyphenyl)-1H-imidazole]
highest inhibition activity: Staphylococcus aureus | Escherichia coli | Pseudomonas aeruginosa | Candida albicans
